# Assay results as given in patent US12180226B2, “Spirotricycle RIPK1 inhibitors and methods of uses thereof” (Merck Sharp & Dohme LLC, priority 2021, dated 2024).
# Structures can show the parent of a compound that is named as a salt.
# Target: RIPK1 (recombinant GST-RIPK1 kinase domain, residues 1-327) (Homo sapiens (Human), UniProt Q13546)
# Assay: RIPK1-ADP-Glo Enzymatic Assay
# Assay type: biochemical
# Conditions: ADP-Glo; 25 nM GST-RIPK1, 300 μM ATP; assay lower limit ~25 nM; read-out: RIPK1 V0 Ec50
# How it was run: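 ADP-Glo luminescence read after 150 min kinase reaction (300 μM ATP, 3 μM dephosphorylated MBP) using 25 nM Sf21-made GST-kinase domain (1-327), preincubated 30 min with compound. HEPES pH 7.3, 1% DMSO; ten-point 1:3 series from 100000 nM, EC50 via four-parameter sigmoidal regression.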
# RIPK1 (recombinant GST-RIPK1 kinase domain, residues 1-327), sequence (Q13546 1-327): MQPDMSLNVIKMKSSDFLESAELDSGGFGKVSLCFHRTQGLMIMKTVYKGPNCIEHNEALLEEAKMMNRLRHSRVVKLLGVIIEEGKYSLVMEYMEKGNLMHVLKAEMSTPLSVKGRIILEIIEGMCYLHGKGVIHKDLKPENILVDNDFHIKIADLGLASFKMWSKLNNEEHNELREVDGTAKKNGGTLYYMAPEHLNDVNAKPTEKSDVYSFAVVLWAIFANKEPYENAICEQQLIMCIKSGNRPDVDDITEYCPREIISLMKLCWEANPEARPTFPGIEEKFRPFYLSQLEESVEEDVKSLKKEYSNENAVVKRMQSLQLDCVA
row,SMILES,EC50
1,"Cc1cnc([C@@H]2CC[C@H]3OC4(CCN(C(=O)c5ccccc5)CC4)C(=O)N32)cn1 [Example 6.143, (5′S,7a′R)-1-(benzene-carbonyl)-5′-(5-meth-ylpyrazin-2-yl)tetra-hydro-3′H-spiro [piperidine-4,2′-pyrrolo[2,1-b][1,3]oxazol]-3′-one]",56.8 nM
2,"O=C(c1ccncn1)N1CCC2(CC1)O[C@@H]1CC[C@@H](c3cc(F)cc(F)c3)N1C2=O [Example 6.63, (5′S,7a′R)-5′-(3,5-difluorophenyl)-1-(pyrimidine-4-carbon-yl)tetrahydro-3′H-spiro[piperidine-4,2′-pyrrolo[2,1-b][1,3]-oxazol]-3′-one]",57.9 nM
3,"O=C(c1cnc2cccnn12)N1CCC2(CC1)O[C@@H]1CC[C@@H](c3cc(F)cc(F)c3)N1C2=O [Example 6.16, (5′S,7a′R)-5′-(3,5-difluorophenyl)-1-(imidazo[1,2-b]-pyridazine-3-carbon-yl)tetrahydro-3′H-spiro[piperidine-4,2′-pyrrolo[2,1-b][1,3]oxazol]-3′-one]",276 nM
4,"O=C(c1ccccc1)N1CCC2(O[C@@H]3CC[C@@H](c4ccccc4)N3C2=O)C(F)C1 (single isomer, unassigned) [Example 2.3, (3[S or R],4[R or S], 5′S,7a′R)-1-benzoyl-3-fluoro-5′-phenyltetrahydro-3′H-spiro[piperidine-4,2′-pyrrolo[2,1-b]oxazol]-3′-one]",< 25 nM
5,"N#Cc1ccc(N2CCC3(CC2)O[C@@H]2CC[C@@H](c4ccccc4)N2C3=O)n2ncc(Br)c12 [Example 4.183, 3-bromo-7-[(5′S,7a′R)-3′-oxo-5′-phenyltetrahydro-1H,3′H-spiro[piperidine-4,2′-pyrrolo[2,1-b] [1,3]oxazol]-1-yl]pyrazolo[1,5-a] pyridine-4-carbonitrile]",< 25 nM
6,"Cc1occc1C(=O)N1CCC2(CC1)O[C@@H]1CC[C@@H](c3cc(F)cc(F)c3)N1C2=O [Example 5.37, (5′S,7a′R)-5′-(3,5-difluoro-phenyl)-1-(2-methylfuran-3-carbonyl)tetrahydro-3′H-spiro[piperidine-4,2′-pyrrolo[2,1-b]oxazol]-3′-one]",< 25 nM
7,"NC(=O)c1nc(N2CCC3(CC2)O[C@@H]2CC[C@@H](c4cc(F)cc(F)c4)N2C3=O)ncc1F [Example 4.184, 2-[(5′S,7a′R)-5′-(3,5-difluorophenyl)-3′-oxotetrahydro-1H,3′H-spiro[piperidine-4,2′-pyrrolo[2,1-b] [1,3]oxazol]-1-yl]-5-fluoropyrimidine-4-carboxamide]",< 25 nM
8,"Cc1ccc(C(=O)N2CCC3(CC2)O[C@@H]2CC[C@@H](c4cc(F)cc(F)c4)N2C3=O)nc1C [Example 6.93, (5′S,7a′R)-5′-(3,5-difluorophenyl)-1-(5,6-dimethylpyridine-2-carbonyl)tetrahydro-3′H-spiro[piperidine-4,2′-pyrrolo[2,1-b] [1,3]oxazol]-3′-one]",192 nM
9,"O=C(c1ccc(O)cc1F)N1CCC2(CC1)O[C@@H]1CC[C@@H](c3cc(F)cc(F)c3)N1C2=O [Example 5.55, (5′S,7a′R)-5′-(3,5-difluoro-phenyl)-1-(2-fluoro-4-hydroxybenzoyl)tetrahydro-3′H-spiro[piperidine-4,2′-pyrrolo[2,1-b]oxazol]-3'-one]",26.2 nM
10,"N#Cc1cn[nH]c1C(=O)N1CCC2(CC1)O[C@@H]1CC[C@@H](c3cc(F)cc(F)c3)N1C2=O [Example 5.40, 5-((5′S,7a′R)-5′-(3,5-difluorophenyl)-3′-oxo-tetrahydro-3′H-spiro [piperidine-4,2′-pyrrolo-[2,1-b]oxazole]-1-carbon-yl)-1H-pyrazole-4-car-bonitrile]",459 nM
11,"Cc1nc(N2CCC3(CC2)O[C@@H]2CC[C@@H](c4cc(F)cc(F)c4)N2C3=O)ncc1F [Example 4.61, (5′S,7a′R)-5′-(3,5-difluorophenyl)-1-(5-fluoro-4-methylpyrimidin-2-yl)tetrahydro-3′H-spiro[piperidine-4,2′-pyrrolo[2,1-b] [1,3]oxazol]-3′-one]",53.4 nM
12,"O=C1N2[C@@H](CC[C@H]2c2ccccc2)OC12CCN(c1ncnc3c(F)cnn13)CC2 [Example 4.233, (5′S,7a′R)-1-(8-fluoropyrazolo[1,5-a] [1,3,5]triazin-4-yl)-5′-phenyltetrahydro-3′H-spiro[piperidine-4,2′-pyrrolo[2,1-b] [1,3]oxazol]-3′-one]",< 25 nM
13,"O=C(c1cccc(C2CC2)c1)N1CCC2(CC1)O[C@@H]1CC[C@@H](c3cccc(F)c3)N1C2=O [Example 6.118, (5′S,7a′R)-1-(3-cyclopropylbenzene-1-carbonyl)-5′-(3-fluorophenyl)tetra-hydro-3′H-spiro [piperidine-4,2′-pyrrolo[2,1-b][1,3]oxazol]-3′-one]",< 25 nM
14,"O=C1N2[C@@H](CC[C@H]2c2cnccn2)OC12CCN(c1ccnc3c(F)cnn13)CC2 [Example 4.140, (5′S,7a′R)-1-(3-fluoropyrazolo[1,5-a]pyrimidin-7-yl)-5′-(pyrazin-2-yl)tetrahydro-3′H-spiro[piperidine-4,2′-pyrrolo[2,1-b] [1,3]oxazol]-3′-one]",25.6 nM
15,"Cc1nc2sccn2c1C(=O)N1CCC2(CC1)O[C@@H]1CC[C@@H](c3cc(F)cc(F)c3)N1C2=O [Example 6.43, (5′S,7a′R)-5′-(3,5-difluorophenyl)-1-(6-methylimidazo[2,1-b][1,3]thiazole-5-carbonyl)tetrahydro-3′H-spiro[piperidine-4,2′-pyrrolo[2,1-b] [1,3]oxazol]-3′-one]",151 nM
16,"O=C(c1ccccc1)N1CCC2(CC1)O[C@@H]1CC[C@@H](c3cncc(F)c3)N1C2=O [Example 1.4, (5′S,7a′R)-1-(benzenecarbonyl)-5′-(5-fluoropyridin-3-yl)tetrahydro-3′H-spiro[piperidine-4,2′-pyrrolo[2,1-b] [1,3]oxazol]-3′-one]",121 nM
17,"O=C(c1cc(F)ccn1)N1CCC2(CC1)O[C@@H]1CC[C@@H](c3cc(F)cc(F)c3)N1C2=O [Example 6.92, (5′S,7a′R)-5′-(3,5-difluorophenyl)-1-(4-fluoropyridine-2-carbonyl)tetrahydro-3′H-spiro[piperidine-4,2′-pyrrolo[2,1-b] [1,3]oxazol]-3′-one]",40.6 nM
18,"Cc1ocnc1C(=O)N1CCC2(CC1)O[C@@H]1CC[C@@H](c3ccccc3)N1C2=O [Example 6.146, (5′S,7a′R)-1-(5-methyl-1,3-oxazole-4-carbonyl)-5′-phenyl-tetrahydro-3′H-spiro [piperidine-4,2′-pyrrolo[2,1-b][1,3]oxazol]-3′-one]",34.9 nM
19,"Cc1ccc(C(=O)N2CCC3(CC2)O[C@@H]2CC[C@@H](c4ccccc4)N2C3=O)c(F)c1 [Example 6.152, (5′S,7a′R)-1-(2-fluoro-4-methylbenzene-1-carbonyl)-5′-phenyl-tetrahydro-3′H-spiro [piperidine-4,2′-pyrrolo[2,1-b][1,3]oxazol]-3′-one]",< 25 nM

# Continued, values first:
row,EC50,SMILES
1,215 nM,"O=C1N2[C@@H](CC[C@H]2c2ccccc2)OC12CCN(c1ccc(=O)n(CC3CC3)n1)CC2 [Example 11.8, (5′S,7a′R)-1-[1-(cyclopropylmethyl)-6-oxo-1,6-dihydropyridazin-3-yl]-5′-phenyltetrahydro-3′H-spiro[piperidine-4,2′-pyrrolo[2,1-b][1,3]oxazol]-3′-one]"
2,339 nM,"O=C1N2[C@@H](CC[C@H]2c2cc(F)cc(F)c2)OC12CCN(c1nnc3cccnn13)CC2 [Example 13.9, (5′S,7a′R)-1-([1,2,4]triazolo[4,3-b]pyridazin-3-yl)-5′-(3,5-difluorophenyl)tetrahydro-3′H-spiro[piperidine-4,2′-pyrrolo[2,1-b]oxazol]-3′-one, TFA salt]"
3,< 25 nM,"O=C1N2[C@@H](CC[C@H]2c2ccccc2)OC12CN(c1ccc(C3CCC3)c3ccnn13)C2 [Example 18.3, (5′S,7a′R)-1-(4-cyclobutylpyrazolo[1,5-a]pyridin-7-yl)-5′-phenyltetrahydro-3′H-spiro[azetidine-3,2′-pyrrolo[2,1-b][1,3]oxazol]-3′-one]"
4,344 nM,"COc1cccc([C@@H]2CC[C@H]3OC4(CCN(C(=O)c5ccccc5)CC4)C(=O)N32)n1 [Example 17.5, (5′S,7a′R)-1-benzoyl-5′-(6-methoxypyridin-2-yl)tetrahydro-3′H-spiro[piperidine-4,2′-pyrrolo[2,1-b]oxazol]-3′-one, TFA salt]"
5,42 nM,"O=C1N2[C@@H](CC[C@H]2c2ccccc2)OC12CCN(c1nccc(-c3ccccn3)n1)CC2 [Example 11.11, (5′S,7a′R)-5′-phenyl-1-[4-(pyridin-2-yl)pyrimidin-2-yl]tetrahydro-3′H-spiro[piperidine-4,2′-pyrrolo[2,1-b][1,3]oxazol]-3′-one]"
6,< 25 nM,"Cc1cnc(-c2ccc(N3CCC4(CC3)O[C@@H]3CC[C@@H](c5ccccc5)N3C4=O)n3nccc23)o1 [Example 21.17, (5′S,7a′R)-1-[4-(5-methyl-1,3-oxazol-2-yl)pyrazolo[1,5-a]pyridin-7-yl]-5′-phenyltetrahydro-3′H-spiro[piperidine-4,2′-pyrrolo[2,1-b][1,3]oxazol]-3′-one]"
7,132 nM,"O=C1N2[C@@H](CC[C@H]2c2ccccc2)OC12CCN(c1csc(C(F)F)c1)CC2 [Example 11.26, (5′S,7a′R)-1-[5-(difluoromethyl)thiophen-3-yl]-5′-phenyltetrahydro-3′H-spiro[piperidine-4,2′-pyrrolo[2,1-b][1,3]oxazol]-3′-one]"
8,< 25 nM,"O=C1N2[C@@H](CC[C@H]2c2cc(F)cc(F)c2)OC12CCN(c1ccc(Br)c3ncnn13)CC2 [Example 13.7, (5′S,7a′R)-1-(8-bromo-[1,2,4]triazolo[1,5-a]pyridin-5-yl)-5′-(3,5-difluorophenyl)tetrahydro-3′H-spiro[piperidine-4,2′-pyrrolo[2,1-b]oxazol]-3′-one]"
